Measurements as given in US7807684B2, “HIV reverse transcriptase inhibitors” (Merck Sharp & Dohme Corp., priority 2005, dated 2010).

Test: Oral dosing to rats, bioavailability
Format: in vivo
Details: compared to analogous dosing of the compound of Example 36

Bioavailability: substantially higher bioavailability
SMILES: CNCCN(C)C(=O)n1nc(COc2ccc(Cl)c(Oc3cc(Cl)cc(C#N)c3)c2)c2cccnc21.Cl [Example 59, 2-[[(3-{[4-chloro-3-(3-chloro-5-cyanophenoxy)phenoxy]methyl}-1H-pyrazolo[3,4-b]pyridin-1-yl)carbonyl](methyl)amino]-N-methylethanaminium chloride]
